The target of the first assay is T1, Neutrophil elastase (Homo sapiens, UniProt P08246).
T1 sequence (P08246 whole entry): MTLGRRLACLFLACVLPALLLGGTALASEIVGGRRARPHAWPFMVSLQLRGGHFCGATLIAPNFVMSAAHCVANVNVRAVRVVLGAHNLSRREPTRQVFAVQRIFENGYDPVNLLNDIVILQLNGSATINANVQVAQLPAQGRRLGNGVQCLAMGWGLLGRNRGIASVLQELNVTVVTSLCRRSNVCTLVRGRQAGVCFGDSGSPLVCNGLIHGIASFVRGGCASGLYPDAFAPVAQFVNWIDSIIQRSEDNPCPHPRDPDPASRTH
Nature of the assay: Inhibitory activity was evaluated against human leukocyte elastase.
For the compound `CCCCCCC(CCCC)c1cc(O)cc(=O)o1` (stereo not drawn), half-maximal inhibition (IC50) required 1620 µM. Still for that read-out and setting: next, `CCCCCCCCCCCC(=O)c1c(O)cc(C)oc1=O`: 26.8 µM; `CCCCCCCCCCCc1cc(O)cc(=O)[nH]1`: 153 µM.

For the compound `CCCCCCCCCCCCCCCC(=O)c1c(O)cc(C)oc1=O`, the IC50 worked out at 35.8 µM. On the same count and under the same terms, with `CCCCCCCCCCCc1cc(O)cc(=O)o1` the figure was 3150 µM.

The next assay concerns the target T1, Neutrophil elastase. The assay can be described thus: Inhibitory activity was evaluated against human leukocyte elastase; Inactive.
On to `CCCCCc1cc(O)cc(=O)o1`, for which the IC50 entry is “Not Active”. Turning to `CCCc1cc(O)cc(=O)o1`, the IC50 result is given as “Not Active”.

For `CCCC(=O)c1c(O)cc(C)oc1=O`, the IC50 entry is “Not Active”. Still for that read-out and setting: with `CCCCCCCc1cc(O)cc(O)n1` the entry was “Not Active”; with `CCCCc1cc(O)cc(=O)o1`, “Not Active”. Same read-out and setting: next, `CCC(=O)c1c(O)cc(C)oc1=O`: “Not Active”. The same measure, in the same setting: with `CCCCCC(=O)c1c(O)cc(C)oc1=O` the entry was “Not Active”; with `CCCCCCCc1cc(O)cc(=O)o1`, “Not Active”.

A word on the IC50: it is the point on the concentration scale where inhibition reaches its midpoint. The low end stands for higher potency, the high end for lower potency.

The values are drawn from ChEMBL document CHEMBL1122919, “Substituted 2-pyrones, 2-pyridones, and other congeners of elasnin as potential agents for the treatment of chronic obstructive lung diseases” (J Med Chem, 1985).
